Assay results published in ChEMBL document CHEMBL1201862, “PubChem BioAssay data set” (2004).
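1) Cells in 96-well plates. 2) Compound, 48 h, 5 concentrations. 3) Linear interpolation between surrounding doses. 4) Unreached endpoint = highest concentration. GI50 is the concentration that inhibits growth by half.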 Active and inactive are the calls of the source. No stated cut-off is given here; in the data, active = GI50 up to about 1.1 µM and inactive = higher. Where a SMILES comes first, the peptide text is derived from it. [ ]: non-standard residue; d: D form. The star is where a group is joined. ξ: configuration not given here. ξF = NC(Cc1ccccc1)C(=O)O; Cbz = O=C(OCc1ccccc1)*; Aib = CC(C)(N)C(=O)O; NHNH2 = NN*

Key:
Assay in all cases: NCI-60 cell line screen, 48 h
UACC-62 = system: UACC-62
Hs-578T = system: Hs-578T
A549 = system: A549
NCI-H23 = system: NCI-H23
Malme-3M = system: Malme-3M
LOX IMVI = system: LOX IMVI
SN12C = system: SN12C
U-251 = system: U-251
MOLT-4 = system: MOLT-4
IGROV-1 = system: IGROV-1
UO-31 = system: UO-31
SF-268 = system: SF-268
786-0 = system: 786-0
SK-OV-3 = system: SK-OV-3
SW-620 = system: SW-620
NCI/ADR-RES = system: NCI/ADR-RES
PC-3 = system: PC-3
HCT-15 = system: HCT-15
RPMI-8226 = system: RPMI-8226
HCC 2998 = system: HCC 2998

SMILES | GI50 (UACC-62) | GI50 (Hs-578T) | GI50 (A549) | GI50 (NCI-H23) | GI50 (Malme-3M) | GI50 (LOX IMVI) | GI50 (SN12C) | GI50 (U-251) | GI50 (MOLT-4) | GI50 (IGROV-1) | GI50 (UO-31) | GI50 (SF-268) | GI50 (786-0) | GI50 (SK-OV-3) | GI50 (SW-620) | GI50 (NCI/ADR-RES) | GI50 (PC-3) | GI50 (HCT-15) [µM] | GI50 (RPMI-8226) | GI50 (HCC 2998)
Oc1ccc(Cc2cc(Cl)cc(Cl)c2O)cc1Cl | 14.7 µM (inactive) | 18 µM (inactive) | 19.1 µM (inactive) | 16.3 µM (inactive) | 16.8 µM (inactive) | 16.6 µM (inactive) | 15.1 µM (inactive) | 19.2 µM (inactive) | 20 µM (inactive) | 17.9 µM (inactive) | 15.7 µM (inactive) | 16.6 µM (inactive) | 20.3 µM (inactive) | 27.1 µM (inactive) | 16.6 µM (inactive) | 18.3 µM (inactive) | 17.7 µM (inactive) | 16.9 | 22.3 µM (inactive) | 
COC(=O)c1cc(=O)n(-c2ccc3nn(C)nc3c2)cc1C(=O)OC | > 100 µM (inactive) | > 100 µM (inactive) | > 100 µM (inactive) | > 100 µM (inactive) | > 100 µM (inactive) |  | > 100 µM (inactive) | > 100 µM (inactive) | > 100 µM (inactive) | > 100 µM (inactive) | > 100 µM (inactive) | > 100 µM (inactive) | > 100 µM (inactive) | > 100 µM (inactive) | > 100 µM (inactive) | > 100 µM (inactive) | > 100 µM (inactive) | > 100 | > 100 µM (inactive) | > 100 µM (inactive)
O=S1(=O)c2ccccc2C(=NO)c2ccccc21 | > 100 µM (inactive) | 63.8 µM (inactive) | > 100 µM (inactive) | > 100 µM (inactive) |  | 80.2 µM (inactive) | 92.9 µM (inactive) | > 100 µM (inactive) | 30.3 µM (inactive) | 64 µM (inactive) | 28.2 µM (inactive) | > 100 µM (inactive) | > 100 µM (inactive) | > 100 µM (inactive) | > 100 µM (inactive) | 57.3 µM (inactive) | 43.4 µM (inactive) | > 100 | 59.4 µM (inactive) | > 100 µM (inactive)
COc1cc(/C=C/C(=O)CC(=O)/C=C/c2ccc(OC(=O)CCCCC3CCSS3)c(OC)c2)ccc1OC(=O)CCCCC1CCSS1 (configuration not stated) | > 100 µM (inactive) | > 100 µM (inactive) | > 100 µM (inactive) | > 100 µM (inactive) | > 100 µM (inactive) | > 100 µM (inactive) | > 100 µM (inactive) | > 100 µM (inactive) | > 100 µM (inactive) | > 100 µM (inactive) | > 100 µM (inactive) | > 100 µM (inactive) | > 100 µM (inactive) | > 100 µM (inactive) | > 100 µM (inactive) | > 100 µM (inactive) | > 100 µM (inactive) | > 100 | > 100 µM (inactive) | 
OCC1CCCCN1Cc1nc2cc(Cl)ccc2[nH]1 (configuration not stated) | > 100 µM (inactive) | > 100 µM (inactive) | > 100 µM (inactive) | > 100 µM (inactive) | > 100 µM (inactive) |  | > 100 µM (inactive) | > 100 µM (inactive) | > 100 µM (inactive) | > 100 µM (inactive) | > 100 µM (inactive) | > 100 µM (inactive) | > 100 µM (inactive) | > 100 µM (inactive) | > 100 µM (inactive) | > 100 µM (inactive) | 55.2 µM (inactive) | > 100 | > 100 µM (inactive) | > 100 µM (inactive)
c1ccc(C2=Nc3nc4ccccc4n3C(c3ccccc3)C2)cc1 (configuration not stated) | > 100 µM (inactive) | 45.5 µM (inactive) | > 100 µM (inactive) | > 100 µM (inactive) | > 100 µM (inactive) | > 100 µM (inactive) |  | > 100 µM (inactive) | > 100 µM (inactive) | > 100 µM (inactive) | > 100 µM (inactive) | > 100 µM (inactive) | > 100 µM (inactive) | > 100 µM (inactive) | > 100 µM (inactive) | > 100 µM (inactive) | > 100 µM (inactive) | > 100 | > 100 µM (inactive) | 
CC(C)(NC(=O)OCc1ccccc1)C(=O)NC(Cc1ccccc1)C(=O)NN (configuration not stated) (Cbz-[Aib]-[ξF]-NHNH2) | > 100 µM (inactive) | > 100 µM (inactive) | > 100 µM (inactive) | > 100 µM (inactive) | > 100 µM (inactive) | > 100 µM (inactive) | > 100 µM (inactive) | > 100 µM (inactive) | > 100 µM (inactive) | > 100 µM (inactive) | > 100 µM (inactive) | > 100 µM (inactive) | > 100 µM (inactive) | > 100 µM (inactive) | > 100 µM (inactive) | > 100 µM (inactive) | > 100 µM (inactive) | > 100 | > 100 µM (inactive) | 
CC(C)(C)OC(=O)n1cc(C2CN(O)C(=O)C23CCC(=O)N3Cc2ccccc2)c2ccccc21 (configuration not stated) | 68.1 µM (inactive) | 42.3 µM (inactive) | 35.3 µM (inactive) | 61.1 µM (inactive) | > 100 µM (inactive) | 21.2 µM (inactive) | 27 µM (inactive) | 36.9 µM (inactive) | > 100 µM (inactive) | 18.8 µM (inactive) | 40.7 µM (inactive) | 86.3 µM (inactive) | 45.9 µM (inactive) | 23.9 µM (inactive) | 68.7 µM (inactive) | 69.5 µM (inactive) | 28 µM (inactive) |  | 31.6 µM (inactive) | 
c1ccc(-c2cccc(-c3ccccn3)n2)nc1 [TERPYRIDINE] | 0.736 µM (active) | 7.06 µM (inactive) | 0.384 µM (active) | 0.753 µM (active) | 0.181 µM (active) |  | 0.631 µM (active) | 0.548 µM (active) | 0.308 µM (active) | 0.48 µM (active) | 0.197 µM (active) | 0.495 µM (active) | 0.368 µM (active) | 0.783 µM (active) | 1.06 µM (active) | 0.321 µM (active) | 0.409 µM (active) | 0.407 | 0.315 µM (active) | 0.298 µM (active)
O=C(O)c1ccccc1-c1ccccc1C(=O)Nc1ccc2c(c1)nc(O)c1ccccc12 | 59.6 µM (inactive) | 98.4 µM (inactive) | > 100 µM (inactive) | > 100 µM (inactive) | > 100 µM (inactive) | 48.9 µM (inactive) | > 100 µM (inactive) | 51.9 µM (inactive) | 25.8 µM (inactive) | 94.4 µM (inactive) | > 100 µM (inactive) | > 100 µM (inactive) | > 100 µM (inactive) | > 100 µM (inactive) | > 100 µM (inactive) | > 100 µM (inactive) | > 100 µM (inactive) | > 100 | > 100 µM (inactive) | 
CC1(C)Oc2ccc3c(=O)cc(-c4cccs4)oc3c2C1C(=O)O (configuration not stated) | > 10 µM (inactive) | > 100 µM (inactive) | > 100 µM (inactive) | > 100 µM (inactive) | > 100 µM (inactive) |  | > 100 µM (inactive) | > 100 µM (inactive) | > 100 µM (inactive) | > 100 µM (inactive) |  | > 100 µM (inactive) | > 100 µM (inactive) | > 100 µM (inactive) |  | > 100 µM (inactive) | > 100 µM (inactive) |  |  | > 100 µM (inactive)
COc1cc(/C=N/NC(=O)c2ccc(NC(C)=O)cc2OC)ccc1O | 61.9 µM (inactive) | 32.4 µM (inactive) | > 100 µM (inactive) | 54.6 µM (inactive) | > 100 µM (inactive) | 47.4 µM (inactive) | > 100 µM (inactive) |  | > 100 µM (inactive) | 64 µM (inactive) | > 100 µM (inactive) | 34.2 µM (inactive) | > 100 µM (inactive) | > 100 µM (inactive) | > 100 µM (inactive) | > 100 µM (inactive) | 43.5 µM (inactive) | 76.6 | > 100 µM (inactive) | 
CC(C)c1cccc(C(=O)NCCN(C)C)c1[N+](=O)[O-] | > 100 µM (inactive) | > 100 µM (inactive) | 80.2 µM (inactive) | > 100 µM (inactive) | > 100 µM (inactive) |  | > 100 µM (inactive) | > 100 µM (inactive) | > 100 µM (inactive) | > 100 µM (inactive) | > 100 µM (inactive) | > 100 µM (inactive) | > 100 µM (inactive) | > 100 µM (inactive) | > 100 µM (inactive) | > 100 µM (inactive) | > 100 µM (inactive) | > 100 |  | > 100 µM (inactive)
COc1cccc2c1-c1nc(N)c3c(OC)cccc3c1C2=O | > 100 µM (inactive) | 22.2 µM (inactive) | > 100 µM (inactive) | 24.9 µM (inactive) | > 100 µM (inactive) | 59.7 µM (inactive) | 95.1 µM (inactive) | > 100 µM (inactive) | 53.5 µM (inactive) | > 100 µM (inactive) | 45.1 µM (inactive) | 68.4 µM (inactive) | 35.9 µM (inactive) | > 100 µM (inactive) | > 100 µM (inactive) | > 100 µM (inactive) | > 100 µM (inactive) | 28.9 | > 100 µM (inactive) | 
CCC1(C)NC(c2cnccn2)=NN1c1ccc(Cl)cc1 (configuration not stated) | > 100 µM (inactive) | > 100 µM (inactive) | > 100 µM (inactive) | > 100 µM (inactive) | 41.9 µM (inactive) | 35.9 µM (inactive) | 29 µM (inactive) | 52.8 µM (inactive) | 32.7 µM (inactive) | > 100 µM (inactive) | > 100 µM (inactive) | > 100 µM (inactive) | 73.8 µM (inactive) | > 100 µM (inactive) | 45.3 µM (inactive) | > 100 µM (inactive) | 65.9 µM (inactive) | > 100 | 30 µM (inactive) | 
